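Tested at 5 concentrations; 48 h exposure; 96-well plates; endpoints linearly interpolated, else capped at highest concentration. GI50 is the concentration that inhibits growth by half.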 Activity calls are given as the source filed them. Cut-off read from the data, not from the text of the source: active = GI50 up to about 1.1 µM and inactive = higher. Where a SMILES comes first, the peptide text is derived from it.
Columns and labels:
Experiment in all cases: DTP human tumour cell line panel, 48 h
EKVX = test system: EKVX
Malme-3M = test system: Malme-3M
K562 = test system: K562
ACHN = test system: ACHN
HCT-116 = test system: HCT-116
T47D = test system: T47D
NCI-H522 = test system: NCI-H522
SF-295 = test system: SF-295
NCI-H460 = test system: NCI-H460
MCF7 = test system: MCF7
KM12 = test system: KM12
LOX IMVI = test system: LOX IMVI
SR = test system: SR
HOP-62 = test system: HOP-62
TK-10 = test system: TK-10
MDA-MB-435 = test system: MDA-MB-435
MDA-N = test system: MDA-N
SK-MEL-2 = test system: SK-MEL-2
PC-3 = test system: PC-3

Row | SMILES | GI50 (EKVX) | GI50 (Malme-3M) | GI50 (K562) | GI50 (ACHN) | GI50 (HCT-116) | GI50 (T47D) | GI50 (NCI-H522) | GI50 (SF-295) | GI50 (NCI-H460) | GI50 (MCF7) | GI50 (KM12) | GI50 (LOX IMVI) | GI50 (SR) | GI50 (HOP-62) | GI50 (TK-10) | GI50 (MDA-MB-435) | GI50 (MDA-N) | GI50 (SK-MEL-2) | GI50 (PC-3)
1 | CC1=C(N2CC2)C(=O)C(CO)=C(N2CC2)C1=O | 0.254 µM (active) | 0.0357 µM (active) | 0.0186 µM (active) | < 0.01 µM (active) | < 0.0291 µM (active) | 0.0114 µM (active) | 0.013 µM (active) | 0.013 µM (active) | < 0.01 µM (active) | 0.0106 µM (active) | 0.0227 µM (active) | < 0.01 µM (active) | < 0.01 µM (active) | 0.0144 µM (active) | 0.0258 µM (active) |  |  |  | 
2 | COC(=O)c1ccc(C)cc1C1CN=NC12Cc1cc(C)c(C)cc1C2=O (configuration not stated) | 24.3 µM (inactive) | 30.5 µM (inactive) | 27.4 µM (inactive) | 29.5 µM (inactive) | 24.2 µM (inactive) |  | 27.7 µM (inactive) | 47.3 µM (inactive) | 37.7 µM (inactive) | 38.7 µM (inactive) | 30.2 µM (inactive) | 25.9 µM (inactive) | 48.5 µM (inactive) | > 100 µM (inactive) | > 100 µM (inactive) | 24.9 µM (inactive) | 27.9 µM (inactive) |  | 
3 | Cc1ccc2c(c1)SC1=Nc3sc4cc(C)ccc4[n+]3CN12 | 0.687 µM (active) | 0.568 µM (active) |  | 30.2 µM (inactive) | 10.5 µM (inactive) | 1.34 µM (inactive) | 1.05 µM (active) |  | 11.7 µM (inactive) | 4.44 µM (inactive) |  | 21 µM (inactive) |  | 9.57 µM (inactive) | 14.9 µM (inactive) | 4.22 µM (inactive) |  | 3.51 µM (inactive) | 15.4 µM (inactive)
4 | CCOC(=O)C(Cc1cn(C(C)=O)c2ccccc12)P(=O)(OCC)OCC (configuration not stated) |  |  | > 100 µM (inactive) | > 100 µM (inactive) | > 100 µM (inactive) | > 100 µM (inactive) | > 100 µM (inactive) | > 100 µM (inactive) | 55.1 µM (inactive) |  |  | > 100 µM (inactive) | > 100 µM (inactive) | > 100 µM (inactive) | > 100 µM (inactive) | > 10 µM (inactive) | > 100 µM (inactive) | > 100 µM (inactive) | 60.8 µM (inactive)
5 | CN(C)c1cccc(OC(=O)NCCCl)c1 | > 100 µM (inactive) |  | > 100 µM (inactive) |  | > 100 µM (inactive) |  | > 100 µM (inactive) | > 100 µM (inactive) | > 100 µM (inactive) | > 100 µM (inactive) | > 100 µM (inactive) | > 100 µM (inactive) |  | > 100 µM (inactive) |  |  |  | > 100 µM (inactive) | 
6 | COc1cc2c(cc1OC)C1C3CCCCC3CCN1CC2 (configuration not stated) | > 100 µM (inactive) | > 100 µM (inactive) | > 100 µM (inactive) | > 100 µM (inactive) | 48.6 µM (inactive) | > 100 µM (inactive) | > 100 µM (inactive) | 83.8 µM (inactive) | > 100 µM (inactive) | 0.36 µM (active) | > 100 µM (inactive) | > 100 µM (inactive) | > 100 µM (inactive) | > 100 µM (inactive) | > 100 µM (inactive) | > 100 µM (inactive) |  | > 100 µM (inactive) | > 100 µM (inactive)
7 | CCOC(=O)c1cc(Sc2ccc(N)c(C(=O)OCC)c2)ccc1N | 13.5 µM (inactive) | 11.6 µM (inactive) | 7.98 µM (inactive) | 10.4 µM (inactive) | > 100 µM (inactive) | > 100 µM (inactive) | 4.38 µM (inactive) | 3.3 µM (inactive) | 78.2 µM (inactive) | 13.2 µM (inactive) | 5.62 µM (inactive) |  | 6.95 µM (inactive) | 14.8 µM (inactive) |  |  | 5.43 µM (inactive) | > 100 µM (inactive) | 11.4 µM (inactive)
8 | COC(=O)C(Cc1c[nH]c2ccccc12)NC(=O)C(Cc1c[nH]cn1)NC(=O)C1CCC(=O)N1C(=O)OCc1ccccc1 (configuration not stated) | > 100 µM (inactive) | > 100 µM (inactive) | > 100 µM (inactive) | > 100 µM (inactive) | > 100 µM (inactive) | 5.13 µM (inactive) |  |  | > 100 µM (inactive) | > 100 µM (inactive) | > 100 µM (inactive) |  | > 100 µM (inactive) | > 100 µM (inactive) | > 100 µM (inactive) |  | > 100 µM (inactive) | > 100 µM (inactive) | > 100 µM (inactive)
9 | Nc1nc(NNc2ccc(Cl)c(Cl)c2)cc(=O)[nH]1 | 39.2 µM (inactive) | 46.9 µM (inactive) | 18.9 µM (inactive) | 35.6 µM (inactive) | 52.4 µM (inactive) |  |  | 54.1 µM (inactive) | 41.6 µM (inactive) | 17.3 µM (inactive) | 30.8 µM (inactive) | 17.3 µM (inactive) | 31.7 µM (inactive) | 70.8 µM (inactive) | > 100 µM (inactive) | 25.4 µM (inactive) | 35.5 µM (inactive) |  | 34 µM (inactive)
10 | COC(=O)Cc1c(C2C(CC(=O)OC)c3ccccc3N2C2OC(CO)C(O)C(O)C2O)[nH]c2ccccc12 (configuration not stated) | > 100 µM (inactive) | > 100 µM (inactive) |  |  | > 100 µM (inactive) |  | > 100 µM (inactive) | > 100 µM (inactive) | > 100 µM (inactive) |  | > 100 µM (inactive) |  | > 100 µM (inactive) | > 100 µM (inactive) | > 100 µM (inactive) | > 100 µM (inactive) | > 100 µM (inactive) | > 100 µM (inactive) | > 100 µM (inactive)
11 | O=Cc1cc(O)c(O)c(/C=N/n2c3ccccc3c3ccccc32)c1 | 18.9 µM (inactive) | 12.4 µM (inactive) | 4.11 µM (inactive) | 4.25 µM (inactive) | 3.37 µM (inactive) | 5.64 µM (inactive) | 2.64 µM (inactive) | 8.69 µM (inactive) | 6.03 µM (inactive) | 0.64 µM (active) | 7.76 µM (inactive) | 8.49 µM (inactive) | 2.84 µM (inactive) | 11.2 µM (inactive) | 13.4 µM (inactive) | 11.3 µM (inactive) |  |  | 10.1 µM (inactive)
12 | O=c1[nH]c(=O)n(COCc2ccccc2)cc1Nc1ccc(Br)cc1 | > 100 µM (inactive) |  | > 100 µM (inactive) | > 100 µM (inactive) | > 100 µM (inactive) |  |  | 44.5 µM (inactive) | > 100 µM (inactive) | > 100 µM (inactive) | > 100 µM (inactive) | > 100 µM (inactive) | > 100 µM (inactive) | 17.1 µM (inactive) |  | > 100 µM (inactive) | > 100 µM (inactive) |  | > 100 µM (inactive)
13 | CCCc1c(O)nc(Nc2nc3ccccc3[nH]2)[nH]c1=O | > 100 µM (inactive) | > 100 µM (inactive) | > 100 µM (inactive) | > 100 µM (inactive) | > 100 µM (inactive) | > 100 µM (inactive) | 71.3 µM (inactive) | > 100 µM (inactive) | > 100 µM (inactive) |  | > 100 µM (inactive) |  | > 100 µM (inactive) |  | > 100 µM (inactive) | > 100 µM (inactive) | > 100 µM (inactive) | > 100 µM (inactive) | > 100 µM (inactive)
14 | C=CCn1c(-c2ccc([N+](=O)[O-])cc2)cs/c1=N\C(P(=O)(O)O)P(=O)(O)O | > 100 µM (inactive) | > 100 µM (inactive) | > 100 µM (inactive) | > 100 µM (inactive) | > 100 µM (inactive) |  | > 100 µM (inactive) | > 100 µM (inactive) | > 100 µM (inactive) | > 100 µM (inactive) | > 100 µM (inactive) | > 100 µM (inactive) | > 100 µM (inactive) | > 100 µM (inactive) | > 100 µM (inactive) | > 100 µM (inactive) | > 100 µM (inactive) |  | > 100 µM (inactive)
15 | O=C(Nc1ccccc1-c1nn(CN2CCNCC2)c(=S)n(CN2CCNCC2)c1=O)C(F)(F)F | 14.2 µM (inactive) | 17.9 µM (inactive) | 21.9 µM (inactive) | 25.3 µM (inactive) | 17.8 µM (inactive) |  |  | 29 µM (inactive) | 20.5 µM (inactive) |  | 19.7 µM (inactive) | 18.8 µM (inactive) |  | 19.6 µM (inactive) | 27.5 µM (inactive) |  |  | 19.4 µM (inactive) | 
16 | O=C(c1ccccc1)c1c2ccccn2c2cccc[n+]12 | > 100 µM (inactive) | > 100 µM (inactive) | > 100 µM (inactive) |  | > 100 µM (inactive) | > 100 µM (inactive) |  | > 100 µM (inactive) | > 100 µM (inactive) | > 100 µM (inactive) | > 100 µM (inactive) | > 100 µM (inactive) | > 100 µM (inactive) | > 100 µM (inactive) | > 100 µM (inactive) | > 100 µM (inactive) |  | > 100 µM (inactive) | > 100 µM (inactive)
17 | Clc1ccc(/N=c2\oc3ccccc3cc2-c2nc3ccccc3[nH]2)c(Cl)c1 | 51.2 µM (inactive) | > 100 µM (inactive) | > 100 µM (inactive) | 31 µM (inactive) | > 100 µM (inactive) | > 100 µM (inactive) | 78.5 µM (inactive) | > 100 µM (inactive) |  |  | > 100 µM (inactive) | > 100 µM (inactive) | > 100 µM (inactive) | 24.3 µM (inactive) | 23.8 µM (inactive) | > 100 µM (inactive) | 83.6 µM (inactive) |  | > 100 µM (inactive)
18 | CC1NC(=O)CNC(=O)CNC(=O)C(Cc2ccc(O)cc2)NC(=O)C(C(C)C)NC(=O)C(C)NC1=O (configuration not stated) (cyclo(GGAAVY); configuration not given here) | > 100 µM (inactive) |  |  |  | > 100 µM (inactive) |  |  | > 100 µM (inactive) | > 100 µM (inactive) | > 100 µM (inactive) | > 100 µM (inactive) | > 100 µM (inactive) |  | > 100 µM (inactive) |  |  |  | > 100 µM (inactive) | 
